The values below come from patent publication US7534814B2, “Mutilin derivatives and their use as antibacterials” (Nabriva Therapeutics AG, priority 1999, dated 2009).

In brackets after ≈: the same amount, converted by molar mass. Where two headings read alike, the source gives them in different places.

Holding throughout (format): cell-based
Test [1] concerns Staphylococcus aureus MRSA. The experiment in a line: MIC in Agar Dilution Test or Micro Dilution Test (NCCLS M7-A4). From the text:
(§1) For example, the active compounds of the present invention show antimicrobial, e.g. antibacterial activity against gram negative bacterias, such as Escherichia coli; and against gram positive bacteria, such as Staphylococcus aureus, Streptococcus pyogenes, Streptococcus pneumonlae, Mycoplasms, Chlamydia and obligatory anaerobes, e.g. Bacteroides fragilis; in vitro in the Agar Dilution Test or Microdilution Test according to National Commitee for Clinical Laboratory Standards (NCCLS) 1997, Document M7-A4 Vol.17, No. 2: “Methods for dilution Antimicrobial Susceptibility Tests for Bacteria that Grow Aerobically—Fourth Edition, Approved Standard”; and e.g. in vivo in systemic infections in mice.
(§2) The active compounds of the invention show an surprising overall activity spectrum. For example, it has been determined that the active compounds of the present invention show surprising activity in vitro against Enterococcus faecium, including vancomycin-resistant strains; against Staphylococcus aureus including methicillin sensitive (MSSA) and methicdllin-resistant (MRSA) strains; and against Streptococcus pneumoniae including penicillin-resistant strains; e.g. in the Agar Dilution Test or in the Micro Dilution Test in Mueller-Hinton agar or Mueller-Hinton broth with or without supplements according to the approved standard reference methods of the National Committee for Clinical Laboratory Standards (NCCLS), Document M7-A4 for aerobic bacteria.

In test [2] the test system is Staphylococcus aureus MSSA. Described as above. Conditions: examples tested in the form of a hydrochloride.
Description: as §1, §2

The subject of test [3] is penicillin-resistant Streptococcus pneumoniae. The description is as above.
Description: as §1, §2

In test [4] the test system is Enterococcus faecalis strain ATCC 29212. The experiment in a line: MIC in Agar Dilution Test or Microdilution Test. Particulars: examples tested in the form of an hydrochloride.
Description: as §1

Turning to `C=C[C@]1(C)C[C@@H](OC(=O)CSc2cccc(NC(=O)[C@H]3CCCCN3)c2)[C@]2(C)[C@H](C)CC[C@]3(CCC(=O)[C@H]32)[C@@H](C)[C@@H]1O` [Example 1], the minimal inhibitory concentration (MIC) was no more than 0.0125 µg/mL in test [1] and “ca. 0.025 μg/ml” in test [2]. On to `C=C[C@]1(C)C[C@@H](OC(=O)CSc2cccc(N)c2)[C@]2(C)[C@H](C)CC[C@]3(CCC(=O)[C@H]32)[C@@H](C)[C@@H]1O` [Example 52, 14-O-[(3-Amino-phenylsulfanyl)acetyl]mutilin], for which the minimum inhibitory concentration (MIC) entry in test [2] was “ca. 0.025 μg/ml”. For the molecule `CC[C@H]1OC(=O)[C@H](C)[C@@H](O[C@H]2C[C@@](C)(OC)[C@@H](O)[C@H](C)O2)[C@H](C)[C@@H](O[C@@H]2O[C@H](C)C[C@H](N(C)C)[C@H]2O)[C@](C)(O)C[C@@H](C)CN(C)[C@H](C)[C@@H](O)[C@]1(C)O` [azithromycin], the MIC was greater than 25.6 µg/mL in test [1] (read-out: MIC), greater than 2.56 µg/mL in test [3] and roughly 1.6 µg/mL (≈ 2.14 µM) in test [2] (read-out: MIC).

Take `CC[C@H]1OC(=O)[C@H](C)[C@@H](O[C@H]2C[C@@](C)(OC)[C@@H](O)[C@H](C)O2)[C@H](C)[C@@H](O[C@@H]2O[C@H](C)C[C@H](N(C)C)[C@H]2O)[C@](C)(O)C[C@@H](C)C(=O)[C@H](C)[C@@H](O)[C@]1(C)O` [erythromycin A]: the MIC entry in test [4] is listed as “ca. 1.6 μg/ml”.
